For one test, the system named is MRSA ATCC 33591. Kind of test: microbe, parasite or virus in culture. The protocol: (§1) were grown in Mueller Hinton broth (Oxoid) in triplicate. All incubations were at 37°C. Dilutions were carried out in triplicate. 100 µl of autoclaved Mueller Hinton broth was added to wells 2-12 in a 96-well plate. 200 µl of the peptide was added to well one at a concentration of 256 µg/mL. 100µl of peptide in well one was taken up and pipetted into well two. The mixture was then mixed via pipetting before 100µl was taken up and pipetted into well three. This process was repeated up to well 11. Once […]
(§2) peptide present. Thus, the concentrations (in µg/mL) were: 256, 128, 64, 32, 16, 8, 4, 2, 1, 0.5, 0.25 and no peptide present. Each well was then inoculated with 100µl of bacteria that had been diluted to an […]
(§3) This was repeated three times. The 96-well plates were then incubated at 37°C for 24 hours. The MIC was determined to be the lowest concentration at which there was no growth visible. […]
(§4) was repeated at an altered initial concentration of 64 µg/ml. Therefore, the new concentrations for MIC […]
(§5) VIII. MIC testing (extended panel)
(§6) Bacterial cultures were grown overnight i n Mueller-Hinton Agar (MHA) plates and adjusted to a final concentration of 10 5 – 106 CFU/ml. 100 µl of inoculum in Meuller -Hinton broth (MHB) was mixed with equal volume of peptides (dissolved in MHB) at 2x their concentration in a 96 well plate. In parallel experiments, MIC values were determined in the media containing polysorbate 80 (0 .002%, v/v) to […]

The test system of a further test is MRSA 1: MRSA ATCC 700699. Put plainly: microbe, parasite or virus in culture. The protocol:
as §5, §6
(§7) prevent non-specific adsorption of the peptides to plastic surfaces. The final peptides concentrations […]
(§8) Positive and negative controls contained 200 µl of inoculum without any peptide dissolved in broth, respectively. The 96 well plates were then incubated at 37 °C for 24 h.
(§9) All the experiments were performed in two independent duplicates and the MIC was determined as the […]
(§10) Minimum bactericidal concentration
(§11) The lowest concentration in which no visible colonies could be detected was taken as the MBC.
(§12) 80. Strain information: MRSA 1: MRSA ATCC 700699, MRSA 2: MRSA DR 42412 (sputum), MRSA
(§13) 3: MRSA DM21455 (eye). […] Staphylococcus aureus ATCC

The subject of test [1] is MRSA 3: MRSA DM21455 (eye). Put plainly: microbe, parasite or virus in culture. The protocol: as §5, §6, §7, §8, §9, §10, §11, §12, §13
Test [2] deals with Staphylococcus aureus ATCC 29213. Kind of test: microbe, parasite or virus in culture. The protocol: as §5, §6, §7, §8, §9, §10, §11, §12, §13
Test [3] concerns MRSA 2: MRSA DR 42412 (sputum). Kind of test: microbe, parasite or virus in culture. As for the experimental part: as §5, §6, §7
(§14) Positive and negative controls contained 200 µl of inoculum without any peptide dissolved in broth, respectively. The 96 well plates were then incubated at 37 °C for 24 h. […]
as §12, §13

In the next test the test system is VRE 1: VRE ATCC 700802. Put plainly: organism not typed. The protocol: as §5, §6, §7, §14, §12, §13
A further test concerns VRE 2: VRE ATCC 29212. Kind of test: organism not typed. The protocol:
as §5, §6, §7, §14, §12, §13

In another test the test system is M. smegmatis ATCC 607. Kind of test: microbe, parasite or virus in culture. As for the experimental part:
as §1, §2, §3, §4
Middlebrook 7H9 broth (SIGMA) supplemented to 5% Middlebrook ADC (SIGMA) growth

Another test relates to MRSA DM21455. Put plainly: Time-kill kinetics. It counts as cell-based, Methicillin-resistant Staphylococcus aureus. As for the experimental part:
IX. Time-dependent killing of bacteria by teixobactin analogues 12 and 13 Time-kill kinetics against MRSA DM21455 strains (clinical isolates from patients) was carried out in MHB. Cultures were grown overnight in MHA plates and adjusted to a final inoculum of 10^5 – 10^6 CFU/ml in MHB (containing 0.002% v/v, polysorbate 80) with teixobactin analogues 12 and 13 maintained at a final concentration of 0.5 µg/ml. For vancomycin, the concentration was varied from 0.5 – 16 µg/ml without polysorbate 80. The tubes were then incubated at 37 °C. 100 µl of cell suspension was withdrawn at various time points (0, 2, 4, 8, 24 h), serially diluted (101-105 fold dilutions) and plated onto a MHA plates and incubated for 24 h at 37 °C.
Colonies were then enumerated […]. Colony counting too numerous to count (>300 colonies) was taken as 1010 CFU. Average values from two independent experiments are reported. […]
(also on this page, place not known: polyso rbate vancomycin , concentr ation 80 . wer e µ l (10 1-105 10 10 previously n - TL C three S76: (Ala10-teixobactin) literature.7 Lipid II Lipid II: Compound 8 = 1:1 Lipid II: Compound 16 = 1:1 Lipid II: Compound 8 = 1:2 Lipid II: Compound 16 = 1:2 Lipid II: Compound 8 = 1:4)

The mark [4] stands for this setting: Staphylococcus aureus, MRSA, 24 h.
Where [5] appears, read: Staphylococcus aureus, MRSA, 24 h, read-out: MIC (with polysorbate 80).
Where [6] appears, read: Staphylococcus aureus, MRSA, 24 h, read-out: MIC (without polysorbate 80).
Where [7] appears, read: Enterococcus, 24 h, read-out: MIC (with polysorbate 80).
Setting [8] is: Enterococcus, 24 h, read-out: MIC (without polysorbate 80).

SMILES strings stand for the structures. ≈ marks a conversion by molar mass, not a printed value. Like-named read-outs stand apart in the source and are kept apart here. Bridge positions count the residues as written; N and C are the ends. Square brackets hold non-standard residues; d marks the D form. Peptide text beside a SMILES is read from it. d(aIle) = CC[C@H](C)[C@@H](N)C(=O)O; dNMeF = CN[C@H](Cc1ccccc1)C(=O)O Bounds are passed on as bounds.

Consider `CN[C@H](CC(C)C)C(=O)N[C@H]1C(=O)N[C@@H](CC(N)=O)C(=O)N[C@H]2C(=O)N[C@H]3C(=O)N[C@H](C(=O)N[C@H](C(=O)O)c4cc(O)cc(O)c4-c4cc3ccc4O)[C@H](O)c3ccc(c(Cl)c3)Oc3cc2cc(c3O[C@@H]2O[C@H](CO)[C@@H](O)[C@H](O)[C@H]2O[C@H]2C[C@](C)(N)[C@H](O)[C@H](C)O2)Oc2ccc(cc2Cl)[C@H]1O` [Compound 18, Vancomycin, reference compound], for which the MIC amounted to 2 µg/mL (≈ 1.38 µM) in the test with MRSA ATCC 33591 (Staphylococcus aureus, 24 h); 2 µg/mL (≈ 1.38 µM) in the test with MRSA 1: MRSA ATCC 700699 (Staphylococcus aureus, 24 h); 1 µg/mL (≈ 0.69 µM) with MRSA 1: MRSA ATCC 700699 (Staphylococcus aureus, ATCC700699|MRSA, 24 h, read-out: MIC (with polysorbate 80)); 2 µg/mL (≈ 1.38 µM) with MRSA 1: MRSA ATCC 700699 (Staphylococcus aureus, ATCC700699|MRSA, 24 h, read-out: MIC (without polysorbate 80)); 2 µg/mL (≈ 1.38 µM) in test [1] (setting [4]); 1 µg/mL (≈ 0.69 µM) in test [1] (setting [5]). Further, the MIC in test [1] (setting [6]) is 2 µg/mL (≈ 1.38 µM); in test [2] (Staphylococcus aureus, ATCC29213, 24 h, read-out: MIC (with polysorbate 80)), 2 µg/mL (≈ 1.38 µM); in [2] (Staphylococcus aureus, ATCC29213, 24 h, read-out: MIC (without polysorbate 80)), 4 µg/mL (≈ 2.76 µM); in test [2] (Staphylococcus aureus, ATCC29213 / MSSA, 24 h), 4 µg/mL (≈ 2.76 µM); in test [3] (setting [4]) it was 2 µg/mL (≈ 1.38 µM); in test [3] (setting [5]), 1 µg/mL (≈ 0.69 µM). The MIC is 2 µg/mL (≈ 1.38 µM) in test [3] (setting [6]); > 4 µg/mL with VRE 1: VRE ATCC 700802; > 4 µg/mL in the test with VRE 1: VRE ATCC 700802 (setting [7]); > 4 µg/mL with VRE 1: VRE ATCC 700802 (setting [8]); > 4 µg/mL in the test on VRE 2: VRE ATCC 29212; > 4 µg/mL in the test with VRE 2: VRE ATCC 29212 (setting [7]). The MIC was > 4 µg/mL in the test on VRE 2: VRE ATCC 29212 (setting [8]) and > 64 µg/mL in the test on M. smegmatis ATCC 607 (Mycolicibacterium smegmatis, ATCC607, 72 h). Also, the time-kill outcome with MRSA DM21455 (0.5 μg mL^–1, without polysorbate 80, 37 °C) is “substantial growth was observed”. In the test on MRSA DM21455 (MRSA 21455, without polysorbate 80), the “concentration needed for similar effects as teixobactin analogues 12 & 13 in time-kill” value turned out to be 8 μg mL^–1.
Take `CC[C@H](C)[C@@H]1NC(=O)[C@H](C)NC(=O)[C@H](NC(=O)[C@H](CO)NC(=O)[C@@H](NC(=O)[C@H](NC(=O)[C@@H](CCC(N)=O)NC(=O)[C@H](CO)NC(=O)[C@@H](NC(=O)[C@@H](Cc2ccccc2)NC)[C@@H](C)CC)[C@@H](C)CC)[C@@H](C)CC)[C@H](C)OC(=O)[C@H]([C@@H](C)CC)NC1=O` [Compound 12, Ile10-teixobactin] (H-[dNMeF]IS[dQ][d(aIle)]IS[dT]AII; ester 8-C): the MIC in the test with MRSA ATCC 33591 (ATCC 33591, 24 h) is recorded as 0.25 μg mL^–1; with MRSA 1: MRSA ATCC 700699 (ATCC 700699, 24 h), 0.25 μg mL^–1; in test [1] (3: DM21455 (eye, 24 h)) it was ≤0.0625 μg mL^–1; in test [2] (ATCC 29213, 24 h), ≤0.0625 μg mL^–1; in [3] (2: DR 42412 (sputum, 24 h)), ≤0.0625 μg mL^–1; against M. smegmatis ATCC 607 (ATCC 607, 72 h), 0.5 μg mL^–1. Moreover, the “MIC (without polysorbate 80)” value in the test on MRSA 1: MRSA ATCC 700699 (ATCC 700699, 24 h) was determined as 2 µg/mL (≈ 1.66 µM); in test [1] (3: DM21455 (eye, 24 h)), 2 µg/mL (≈ 1.66 µM); in test [2] (ATCC 29213, 24 h), 1 µg/mL (≈ 0.832 µM); in [3] (2: DR 42412 (sputum, 24 h)), 2 µg/mL (≈ 1.66 µM); against VRE 1: VRE ATCC 700802 (ATCC 700802, 24 h) it was 1 µg/mL (≈ 0.832 µM); against VRE 2: VRE ATCC 29212 (ATCC 29212, 24 h), 1 µg/mL (≈ 0.832 µM). Besides, the MBC in the test on MRSA 1: MRSA ATCC 700699 (MRSA 1 (MRSA ATCC 700699), plated on MHA, 37 °C, 24 h) was determined as 1 μg mL^–1; in test [1] (MRSA 3 (MRSA DM21455), plated on MHA, 37 °C, 24 h), 0.125 μg mL^–1; in test [2] (Staphylococcus aureus ATCC 29213, plated on MHA, 37 °C, 24 h), 0.125 μg mL^–1. Moreover, the “MIC (with polysorbate 80)” value in the test with MRSA 1: MRSA ATCC 700699 (MRSA 1, MHB containing polysorbate 80 (0.002%, v/v), 37 °C, 24 h, two independent duplicates) was 0.25 µg/mL (≈ 0.208 µM); in test [1] (MRSA 3, MHB containing polysorbate 80 (0.002%, v/v), 37 °C, 24 h) it was ≤ 0.0625 µg/mL; in test [2] (S. aureus ATCC 29213, MHB containing polysorbate 80 (0.002%, v/v), 37 °C, 24 h) it was ≤ 0.0625 µg/mL; in test [3] (MRSA 2, MHB containing polysorbate 80 (0.002%, v/v), 37 °C, 24 h), ≤ 0.0625 µg/mL; with VRE 1: VRE ATCC 700802 (VRE 1, MHB containing polysorbate 80 (0.002%, v/v), 37 °C, 24 h) it was ≤ 0.0625 µg/mL; in the test with VRE 2: VRE ATCC 29212 (VRE 2, MHB containing polysorbate 80 (0.002%, v/v), 37 °C, 24 h) it was ≤ 0.0625 µg/mL. In the test on MRSA DM21455 (0.5 μg mL^–1, MHB containing 0.002% v/v polysorbate 80, 37 °C, average of two independent experiments), the “time to complete bactericidal activity” value is ≤ 8 h.

Values taken from publication PMC5855875, “Teixobactin analogues reveal enduracididine to be non-essential for highly potent antibacterial activity and lipid II binding” (Chemical Science, 2017).
